Read-outs that look alike come from different tables or passages of the source.

Consider five molecules from patent publication US20250319096A1, “METHODS AND COMPOUNDS FOR TREATING INFLAMMATION” ([…] INCORPERATED, priority 2021, published 2025).

Experiment [1] concerns the target GABAA receptors. Conditions: literature value, ref [37]; read-out: reported IC50 (GABAAR binding); cited from earlier work.
Experiment [2] concerns C57BL/6 mouse bladder strips with intact mucosa. As to the kind of experiment: Functional analysis in overactive bladder model, carbachol-contracted bladder strips. Details: species or system mice. Conditions: 10 uM carbachol, cumulatively increasing concentrations 1-100 uM. How it is done: C57BL/6 female mice (12 weeks, Harlan UK, Ltd) are euthanized by cervical dislocation. The bladder is removed after a midline laparotomy, the neck and trigone region cut away and the dome laid out as a sheet after an anterior wall incision. Strips with intact mucosa (5-7 mm length, 1-2 mm diameter) are dissected and tied in a horizontal trough between a fixed hook and an isometric force transducer. Preparations are superfused (3 ml·min−1) at 36° C. with Tyrode's solution. PI320 or DMSO vehicle are added to the superfusate and their effects on tension measured.
Unstimulated preparations are allowed to equilibrate under tension (20 mN) until a stable base-line is recorded. The preparation is exposed to 10 µM carbachol and peak and steady-state tension recorded. In the continued presence of carbachol the preparation is also exposed to P1320 in cumulatively increasing concentrations (1, 3, 10, […], 100 uM) until a new steady-state is achieved at each concentration. For vehicle controls DMSO is added in rising concentrations (0.01, 0.03, 0.1, 0.3, 1.0% (v/v)) after a steady-state contraction is achieved with carbachol.
Data are mean±SD; differences between multiple data sets were tested with repeated measures two-way ANOVA and Tukey post hoc tests.

Experiment [3] deals with colon MPO activity (Myeloperoxidase). In words: MPO assay on whole colon homogenates of DSS mice. Type of experiment: in vivo. The settings on record: 100 mg/kg daily in peanut butter, 3% DSS water. The method, then: (§1) Ten (10) week old female Swiss Webster mice were offered 3% Dextran sodium sulfate (DSS) water to induce ulcerative colitis. Group 1 (n=8) received daily peanut butter (200 mg) and group 2 (n=8) received 100 mg/kg PI320 in peanut butter. The animals were weighted daily. See, FIGS. 1A and 1B.
MPO assay: Whole colons were homogenized in phosphate buffer and centrifuge at 10,000 rpm at 4° C. from 10 min. The protein concentration supernatant was determined with a BCA assay and adjusted to 200 μg/ml with the addition of phosphate buffer. A daily standard solution for the hydrogen peroxide solution was prepared to a concentration of 0.0024% from a 35% v/v stock. The phosphate buffer that was prepared for the BCA assay was utilized for the dilution step of this assay. O-dianisidine dihydrogen chloride was prepared at a concentration of 167 μg/mL in phosphate buffer and sonicated for 30 min to dissolve in the buffer. 8 µL of protein solution was transferred to a 384 well plate containing 62 μL of the o-dianisidine solution. The reaction is initiated with the addition of 10 μL of the hydrogen peroxide solution prepared above. […] The product of this reaction shifts the absorbance to the λmax to 460 nm. The plate is then measured over a 15 min period in the plate reader in 30 sec intervals. […]

Experiment [4] concerns mice with INFγ/LPS induced lung inflammation. In words: Steroid resistant mouse asthma model (INFγ/LPS), airway hyperresponsiveness sRaw after methacholine. Type of experiment: in vivo. The settings on record: for reduction of AHR (sRAW) versus vehicle control: nebulized 7.2 mg/kg, prior to second and third methacholine application, p≤0.005. The method, then:
Female A/J mice are purchased from Jackson Laboratory (Bar Harbor, ME) and female Swiss Webster mice are purchased from Charles River Laboratory (Wilmington, MA). Animals are given ad libitum access to food and water. Test drugs are prepared for nebulization as follows: a 3.0 mg/ml solution of albuterol (Millipore Sigma) is prepared in phosphate buffered saline (137 mM NaCl, 2.7 mM KCl, 10 mM Na2HPO4, and 1.8 mM KH2PO4) and PI320 is prepared as 3.2 mg/ml solution in water with 0.17% Tween-20. Airway hyperresponsiveness measurements, sRaw, are obtained using a Buxco FinePointe Non-Invasive Airway Mechanics instrument (DSI, St. Paul, MN) as described previously (ACS Pharmacol Transl Sci 3, 1381-1390).
Efficacy of control drug (albuterol) and PI320 are determined by reduction of sRAW in mice compared to vehicle treated control mice. Here, mouse lung inflammation is induced with INFγ and bacterial lipopolysaccharide (LPS) via intratracheal installation. Elevated levels of IFNγ in the lung are observed for neutrophilic asthma patients, which respond poorly to steroid treatment (Eur Respir J 11, 312-316). One contributing factor is the impaired nuclear translocation of the liganded glucocorticoid receptor in pulmonary macrophages (Am J Respir Crit Care Med 191, 54-62). LPS simulates a microbial infection leading to macrophage-mediated inflammatory response (J Immunol 185, 4401-4409).
The tracheal installation of INFγ/LPS increases airway hyper-responsiveness to an inhaled challenge agent as measured by sRAW, which is based on the breathing volume and frequency. The challenge agent, methacholine, is administered three times over 24 minutes resulting in sRAW of approximately 8.0 cmH2O*sec.

Experiment [5] relates to Swiss Webster mice with 3% Dextran sodium sulfate (DSS) induced ulcerative colitis. In words: Inflammatory bowel disease model, 3% DSS induced ulcerative colitis, bodyweight. Type of experiment: in vivo. Conditions: 100 mg/kg daily in peanut butter, 3% DSS water. The method, then: as §1
Experiment [6] has as its target GABAA receptors. In words: GABAA receptor binding, [3H]-flunitrazepam displacement on rat brain membranes. Conditions: n=6, read-out: GABAAR binding (IC50). How it is done: Rat brain membranes are prepared from frozen tissue that was thawed on ice, homogenized on ice in 10 volumes of cold lysis buffer (50 mM Tris HCl, pH 7.4, containing protease inhibitor cocktail from Roche) using a Polytron homogenizer (6 pulses and 10 seconds per pulse). The homogenate is centrifuged at 1,000×g for 10 min at 4° C. to obtain supernatant. The supernatant is then centrifuged at 40,000×g for 20 min, and then the resulting supernatant is decanted and replaced with the same ice-cold lysis buffer. Two or three additional rounds of homogenization-centrifugation are performed to ensure thorough homogenization and also to wash out endogenous ligands. The final pellet is resuspended in the same buffer and homogenized one last time. The rat brain suspension is diluted in buffer (50 mM Tris HCl, 2.5 mM CaCl2), pH 7.4), followed by the addition of [3H]-flunitrazepam (0.6-4.0 nM in DMSO) and PI320 or PI310 in DMSO at different concentrations to reach a final of volume of 125 ul per well. GABAAR subtypes that bind flunitrazepam consist of α1-3,5,6β1-3γ1-3/δ GABAARs. Relative expression of GABAARs in the brain consist of 43% α1β2γ2, 15% α2β3γ2+8% α2βγ1, 10% α3β3γ2, 6% α4βγ/δ, 4% α5β3γ2, and 4% α6β2γ2/δ. […]
Total binding and nonspecific binding are determined with reference compound clonazepam. […] Scintillation cocktail is then melted onto the microwave-dried filters on a hot plate and radioactivity counted in a Microbeta counter. The data (n=6) are analyzed by nonlinear regression.
GABAA receptor binding: Rat brain membranes were prepared from frozen tissue that was thawed on ice and homogenized on ice in 10 volumes of cold lysis buffer (50 mM Tris HCl, pH 7.4, containing protease inhibitor cocktail; Roche) using a Polytron homogenizer (6 pulses and 10 seconds per pulse). […] Total binding and nonspecific binding were determined with reference compound clonazepam. […] Scintillation cocktail was then melted onto the microwave-dried filters on a hot plate and radioactivity counted in a Microbeta counter. The data (n=6) were analyzed by nonlinear regression.

Experiment [7] concerns Swiss Webster mice, MC903 challenge. In words: MC903 mouse AD model, ear thickness. Type of experiment: in vivo. Conditions: 2 nmol topically on both ears, third week after MC903, p≤0.05 / p≤0.01. The text has this: An established mouse model of AD is used to evaluate the efficacy of PI320 in reducing ear thickness following MC903 challenge (for background on the model see: J Invest Dermatol 138, 2606-2616 [28]; Proc Natl Acad Sci USA, 103, 11736-11741 [29]; Sci Transl Med, 5, 170ra116 [30]; J Invest Dermatol, 138, 1555-1563 [31]). Ear thickness is used as a measure of inflammation caused by the chemical irritant.
Briefly, commercially sourced female Swiss Webster mice (Charles River Laboratory, Wilmington, MA) at approximately seven weeks of age are used. Sixteen mice are housed under 7:00 AM-7:00 PM 12 h light cycle and administered 2 nmol MC903 on each ear on Monday, Wednesday and Friday for two weeks. The ear thickness increased from 0.3 mm to 0.7 mm during that time. During the third week, a group of eight mice were administered 2 nmol of PI320 topically on both ears (10 ul of a 100 uM solution in ethanol on each side of both ears). The control group received vehicle ethanol. Ear thickness is measured using calipers. […] See, FIG. 4.

Consider `C[C@H]1N=C(c2ccccc2F)c2cc(Br)ccc2-n2cnc(C(=O)O)c21` [MIDD0301, (R)-8-bromo-6-(2-fluorophenyl)-4-methyl-4H-benzo[f]imidazo[1,5-a][1,4]diazepine-3-carboxylic acid], for which the IC50 – broadly, the concentration needed to halve the response being measured – in experiment [1] is 72 nM.
`COCCOCCOCCOCCOCCNC(=O)c1ncn2c1[C@@H](C)N=C(c1ccccc1F)c1cc(Br)ccc1-2` [PI320, (R)-8-bromo-6-(2-fluorophenyl)-N-(2,5,8,11,14-pentaoxahexadecan-16-yl)-4-methyl-4H-benzo[f]imidazo[1,5-a][1,4]diazepine-3-carboxamide]: the “contraction force of bladder strips versus DMSO controls” value in experiment [2] is recorded as “concentration-dependent reduction of force”. Moreover, the “colon Myeloperoxidase (MPO) level versus vehicle group” value in experiment [3] is reported as “greatly reduced”. Besides, in experiment [4] (administered via inhalation), the “reduction of methacholine induced airway hyper-responsiveness compared with albuterol” value is “at least as effective as albuterol”. The “reduction of AHR (sRAW) versus vehicle control” value in experiment [4] is reported as “statistically significant reductions”. In addition, in experiment [5] (days 6 and 7), the “change of bodyweight in comparison to the initial weight” value is listed as “small drop in weight”. Besides, the change of bodyweight entry in experiment [5] (from day 2) is reported as “regained weight on day 2”. The IC50 in experiment [6] stood at 242 nM. The “ear thickness versus vehicle control” value in experiment [7] is on record as “significantly reduces ear thickness”.
As for `COCCOCCNC(=O)C1N=CN2C3=C(CC(Br)C=C3)C(c3ccccc3F)=N[C@H](C)C12` (stereo partly drawn) [PI350], the IC50 in experiment [6] is 58 nM.
Same read-out and setting: under `COCCOCCOCCOCCNC(=O)C1N=CN2C3=C(CC(Br)C=C3)C(c3ccccc3F)=N[C@H](C)C12` (stereo partly drawn) [PI352] stands 38 nM.
For `CC(C)(C)NCC(O)c1ccc(O)c(CO)c1` (stereo not drawn) [albuterol, reference compound], the “reduction of AHR (sRAW) versus vehicle control” value in experiment [4] is reported as “statistically significant reductions”.
